For assay [1], the system named is rat glioma C6 cancer cells. The assay is described as follows: MTT assay on rat glioma C6 cells. It counts as cell-based. Particulars: 5-80 μM, read-out: The inhibitory effect IC50 on rat glioma C6 cancer cells. How it is done:
The Antiproliferative Activities of Arene Ruthenium (II) Complexes Against Rat Glioma C6 Cancer Cells.
(§1) The antiproliferative effects of arene ruthenium (II) complex against rat glioma C6 cells were evaluated by MTT assay. Discarding the medium of the rat glioma C6 cells in exponential growth phase, washing the cells twice with phosphate-buffered saline (PBS), dissociating into single cells by digesting with 1 mL trypsin, counting the cells. Adding fresh medium to dilute cell population to 1.5×10^4 cells/mL, inoculating into 96-well tissue culture plates (3×10^3 cells per well) with 200 μL/well in 6 wells of each group, repeating twice, and then culturing at 37° C. in 5% CO2 saturated humidity incubator for 16 h. After adherent cells are apparent, removing the supernatant carefully and adding DMEM media. Meanwhile, the cells were incubated with different concentrations of arene ruthenium (II) complexes with a final concentration of 5, 10, 20, 40 and 80 μM respectively, and maintain the total volume at 200 μL/well. Thereafter, the cells were cultured for 72 h. At the end of incubation, 20 μL/well of MTT solution (5 mg/mL) was added and incubated for 4 h. Removing the supernatant carefully and replaced with 150 μL/well of DMSO and oscillated for 10 min to ensure complete dissolution of the formazan crystallization. The absorbance values were measured at 490 nm using a microplate reader. Cell viability was calculated according to the following formula: Cell viability (%)=A490 nm (cells in experimental group)/A490 nm (cells in control group)×100%
According to the values of cell viability, calculating the inhibitory activities (IC50) of the target complex against rat glioma C6 cells.
For orientation: Tetrazolium dyes change colour on reduction, which living cells bring about.

The subject of assay [2] is MDA-MB-231 breast cancer cells. The assay is described as follows: MTT assay on MDA-MB-231 breast cancer cells. In kind it is cell-based. The settings on record: 72 h, 5-80 μM, read-out: The inhibitory effect IC50 on MDA-MB-231 breast cancer cells. The procedure:
The Anti-Invasion Activities of Arene Ruthenium (II) Complexes Against MDA-MB-231 Breast Cancer Cells.
The anti-invasion activities of arene ruthenium (II) complexes against MDA-MB-231 breast cancer cells was evaluated by MTT assay. Discarding the medium of the MDA-MB-231 breast cancer cells in exponential growth phase, washing the cells twice with phosphate-buffered saline (PBS), dissociating into single cells by digesting with 1 mL trypsin, counting the cells. Adding fresh medium to dilute cell population to 1.5×10^4 cells/mL, inoculating into 96-well tissue culture plates (3×10^3 cells per well) with 200 μL/well in 6 wells of each group, repeating twice, and then culturing at 37° C. in 5% CO2 saturated humidity incubator for 16 h. After adherent cells are apparent, removing the supernatant carefully and adding DMEM media. Meanwhile, the cells were incubated with different concentrations of arene ruthenium (II) complexes with a final concentration of 5, 10, 20, 40 and 80 μM respectively and maintain the total volume at 200 μL/well. Thereafter, the cells were cultured for 72 h. At the end of incubation, 20 μL/well of MTT solution (5 mg/mL) was added and incubated for 4 h. Removing the supernatant carefully and replaced with 150 μL/well of DMSO and oscillated for 10 mins to ensure complete dissolution of the formazan crystallization. The absorbance values were measured at 490 nm using a microplate reader. Cell viability was calculated according to the following formula: Cell viability (%)=A490 nm (cells in experimental group)/A490 nm (cells in control group)×100%
According to the values of cell viability, calculating the inhibitory activities (IC50) of the target complex against MDA-MB-231 cells.

Assay [3] relates to nasopharyngeal carcinoma CNE-1 cancer cells. The assay is described as follows: MTT assay on nasopharyngeal carcinoma CNE-1 cells. In kind it is cell-based. Particulars: 72 h, 5-80 μM, read-out: The inhibitory effect IC50 on CNE-1 cancer cells. The procedure:
The Antiproliferative Activities of Arene Ruthenium (II) Complexes Against Nasopharyngeal Carcinoma CNE-1 Cancer Cells.
as §1, with “complex against nasopharyngeal carcinoma CNE-1 cells were” for “complex against rat glioma C6 cells were”, “of the nasopharyngeal carcinoma CNE-1 cells in” for “of the rat glioma C6 cells in”, “80 μM respectively and maintain” for “80 μM respectively, and maintain”, “and incubated at 37° C. for 4” for “and incubated for 4”
According to the values of cell viability, calculating the inhibitory activities (IC50) of the target complex against CNE-1 cancer cells.

The subject of assay [4] is A549 lung adenocarcinoma cancer cells. The assay is described as follows: MTT assay on A549 lung adenocarcinoma cells. It counts as cell-based. Particulars: 72 h, 5-80 μM, read-out: The inhibitory effect IC50 on A549 lung adenocarcinoma cancer cells. How it is done:
The Antiproliferative Activities of Arene Ruthenium (II) Complexes Against A549 Lung Adenocarcinoma Cancer Cells
as §1, with “complex against A549 lung adenocarcinoma cells were” for “complex against rat glioma C6 cells were”, “MTT assay. Discarded the medium” for “MTT assay. Discarding the medium”, “of the A549 lung adenocarcinoma cells in” for “of the rat glioma C6 cells in”, “80 μM respectively and maintain” for “80 μM respectively, and maintain”, “and incubated at 37° C. for 4” for “and incubated for 4”
According to the values of cell viability, calculating the inhibitory activities (IC50) of the target complex against A549 lung adenocarcinoma cancer cells.

The test system of assay [5] is human esophageal carcinoma EC-1 cells. The assay is described as follows: MTT assay on human esophageal carcinoma EC-1 cells. In kind it is cell-based. Particulars: 72 h, 5-80 μM, read-out: The inhibitory effect IC50 on human esophageal carcinoma EC-1 cells. The procedure: The Antiproliferative Activities of Arene Ruthenium (II) Complexes Against Human Esophageal Carcinoma EC-1 Cells.
as §1, with “complex against human esophageal carcinoma EC-1 cells were” for “complex against rat glioma C6 cells were”, “medium of human esophageal carcinoma EC-1 cells in” for “medium of the rat glioma C6 cells in”, “with 200 µL/well in 6” for “with 200 μL/well in 6”, “80 μM respectively and maintain” for “80 μM respectively, and maintain”, “and incubated at 37° C. for 4” for “and incubated for 4”
According to the values of cell viability, calculating the inhibitory activities (IC50) of the target complex against human esophageal carcinoma EC-1 cells.

Assay [6] concerns human epidermal HaCaT cells. In words: MTT assay on human epidermal HaCaT cells. The settings on record: 72 h, 5-80 μM, normal epidermal cells, read-out: The inhibitory effect IC50 on human epidermal HaCaT cells. It counts as cell-based. How it is done:
The Antiproliferative Activities of Arene Ruthenium (II) Complexes Against Human Epidermal HaCaT Cells.
The antiproliferative effects of arene ruthenium (II) complex against human epidermal HaCaT cells were evaluated by MTT assay. Discarding the medium of human epidermal HaCaT cells in exponential growth phase and washing the cells twice with phosphate-buffered saline (PBS), dissociating into single cells by digesting with 1 mL trypsin. Adding fresh medium to dilute cell population to 1.5×10^4 cells/mL, inoculating into 96-well tissue culture plates (3×10^3 cells per well) with 200 μL/well in 6 wells of each group, repeating twice, and then culturing at 37° C. in 5% CO2 saturated humidity incubator for 16 h. After adherent cells are apparent, carefully removing the supernatant and adding DMEM media. Meanwhile, the cells were incubated with different concentrations of arene ruthenium (II) complexes with a final concentration of 5, 10, 20, 40 and 80 μM respectively and maintain the total volume at 200 µL/well. Thereafter, the cells were cultured for 72 h. At the end of incubation, 20 μL/well of MTT solution (5 mg/mL) was added and incubated at 37° C. for 4 h. Removing the supernatant carefully and replaced with 150 μL/well of DMSO and oscillated for 10 min to ensure complete dissolution of the formazan crystallization. The absorbance values were measured at 490 nm using a microplate reader. Cell viability was calculated according to the following formula: Cell viability (%)=A490 nm (cells in experimental group)/A490 nm (cells in control group)×100%
According to the values of cell viability, calculating the inhibitory activities (IC50) of the target complex against human epidermal HaCaT cells.

In assay [7] the test system is nasopharyngeal carcinoma cells. The settings on record: read-out: anti-proliferative activity IC50, nasopharyngeal carcinoma cells; cited from earlier work.
The next assay relates to lung cancer cells. The settings on record: read-out: anti-proliferative activity IC50, lung cancer cells; cited from earlier work.
For another assay, the system named is breast cancer cells. Particulars: read-out: anti-proliferative activity IC50, breast cancer cells; cited from earlier work.
The test system of a further assay is ovarian cancer cells. Particulars: read-out: anti-proliferative activity IC50, ovarian cancer cells; cited from earlier work.

Like-named read-outs stand apart in the source and are kept apart here.

One may read the IC50 as the concentration at which inhibition is half-maximal.

For the compound `Cn1nnc2c(C(N)=O)ncn2c1=O` [Temozolomide, reference compound], in [1] (Rattus norvegicus, C6, 72 h), the IC50 amounted to 259 ± 15.5 µM.

Regarding `N.N.[Cl][Pt][Cl]` [cis-platin, reference compound], the IC50 in assay [2] turned out to be 17.8 ± 0.9 µM; in [3], 19.1 ± 0.5 µM; in assay [4], 93.1 ± 0.9 µM; in assay [5], 9.4 ± 0.21 µM; in assay [6], 17.1 ± 0.8 µM.

As for [(η^6-p-cymene)Ru(C6H5-BzTSC)Cl]Cl, the half-inhibitory concentration (IC50) is 20 µM in [7], 31 µM in the assay with lung cancer cells, 10 µM in the assay on breast cancer cells and 34 µM in the assay on ovarian cancer cells.

For “[(η^6-p-cymene)Ru(m-BrPIP)Cl]Cl [RAP062]”, the concentration for half-maximal inhibition (IC50) turned out to be 9.2 ± 0.3 µM in assay [2]; 5.4 ± 0.17 µM in assay [1] (72 h); 15.7 ± 0.11 µM in [3]; 6.59 ± 2.26 µM in assay [4]; 37.3 ± 1.99 µM in assay [6].

Turning to “[(η^6-p-cymene)Ru(m-ClPIP)Cl]Cl [RAP052]”, the concentration for half-maximal inhibition (IC50) in [4] is 36.6 ± 0.67 µM.

“[(η^6-p-cymene)Ru(o-BrPIP)Cl]Cl [RAP061]”: the IC50 in [6] was over 100 µM.

Take “[(η^6-p-cymene)Ru(o-OCH3PIP)Cl]Cl [RAP201]”: the IC50 in assay [3] stood at 17.4 ± 0.47 µM.

As for “[(η^6-p-cymene)Ru(p-CF3PIP)Cl]Cl [RAP083]”, the IC50 in assay [2] was 6.27 ± 0.29 µM; in [1] (72 h), 4.5 ± 0.07 µM; in assay [5] it was 6.9 ± 0.2 µM; in [6], over 100 µM.

Take “[(η^6-p-cymene)Ru(p-CH3PIP)Cl]Cl [RAP273]”: the 50% inhibitory concentration (IC50) in [2] is 9.6 ± 0.3 µM; in assay [5], 18.4 ± 11.7 µM.

In the case of [(η^6-p-cymene)Ru(p-FPIP)Cl]Cl [RAP04], the results for the IC50 in assay [1] (72 h) and in assay [5] were 1.2 ± 0.3 µM and 18.2 ± 0.5 µM, respectively.

As to [(η^6-p-cymene)Ru(p-IPIP)Cl]Cl [RAP073], the IC50 was 3.2 ± 0.1 µM in assay [2] and 3.3 ± 0.07 µM in assay [3].

As to “[(η^6-p-cymene)Ru(p-N(CH3)2PIP)Cl]Cl [RAP093]”, the half-maximal inhibitory concentration (IC50) in [2] is 6.4 ± 0.16 µM; in [1] (72 h), 5.6 ± 0.11 µM; in [3], 11.9 ± 0.73 µM; in assay [6], over 100 µM.

Take “[(η^6-p-cymene)Ru(p-NO2PIP)Cl]Cl [RAP143]”: the IC50 came out at 2.4 ± 0.05 µM in [1] (72 h) and 11.8 ± 0.9 µM in assay [4].

These data come from patent US10358455B2, “Arene ruthenium complex, preparation method and utilization thereof” (Guangdong Pharmaceutical University, priority 2017, dated 2019).
